Square brackets hold non-standard residues; d marks the D form. Ends that are not written are not given here. Peptide text beside a SMILES is read from it. * marks the point of attachment. dTrp(2-Me) = Cc1[nH]c2ccccc2c1C[C@@H](N)C(=O)O; Octanoyl = CCCCCCCC(=O)*
Columns and labels:
[1] = test system: human keloid fragments xeno-transplanted in athymic mice; experiment: Human keloid fragments xeno-transplanted into athymic mice (Example 7); type: in vivo, mouse; conditions: for No. of fields positive to collagen-specific staining: Picrosirius red and trichromic Masson's staining, 4× and 10× averaged; for No. of fields positive to collagen-specific staining / No. of microscopic fields with mast cells (20X magnif.): infiltrated once every 24 hrs during 7 days; for No. of microscopic fields with mast cells (20X magnif.): aniline blue staining; for Hydroxiproline content in the tissue / Wet weight of the graft collected: infiltrated at the edges in the implants once every 24 hrs during 7 days, 5 micrograms to 1 milligram
Text: To study the effect of peptides GHRP-6, GHRP-2, Hexarelin and/or Ghrelin in eradicating the pathological deposits of physiological material in the skin, human keloid fragments were xeno-transplanted into the dorsal region in athymic mice. After 72 hrs of evolution, to corroborate grafting and viability of xeno-transplants, the animals (N=6) were randomly distributed into the following experimental groups: • A—Saline control group (vehicle of the active principles). • B—Group receiving GHRP-6. • C—Group receiving GHRP-2. • D—Group receiving Ghrelin. • E—Group receiving Hexarelin. • Treatments were applied once every 24 hrs during 7 days. The substances were infiltrated at the edges in the implants, for local bioavailability of the active principles, at dosages from 5 micrograms to 1 milligram. After the treatment period, the animals were sacrificed and the implants extracted to evaluate the pharmacological response to every substance. Samples were weighed and fragmented for histological studies and biochemical determinations of collagen. The fragments for histological studies were fixed in 10% formalin neutral, and those fragments for biochemical analyses were stored at −70° C. • The parameters studied were: • a—Wet weight of the graft collected. • b—Hydroxiproline content in the tissue. • c—Number of microscopic fields with tissue positive to Picrosirius red staining and trichromic Masson's staining.

[2] = test system: transgenic mice over-expressing one mutated form of the NOTCH 3 gene; experiment: Dementia of vascular origin: transgenic mice over-expressing mutated NOTCH 3 gene (CADASIL model, Example 6); type: in vivo, mouse; parameters: SODt (oxidative stress marker) / Cabalase (oxidative stress marker) / HPT (oxidative stress marker) / MDA (oxidative stress marker): unit not given here; conditions: 100 μg/kg i.p. twice a week, 16 weeks; for Cabalase (oxidative stress marker) / Cerebral Myo-inositol / HPT (oxidative stress marker) / MDA (oxidative stress marker) / SODt (oxidative stress marker): brain; for No. of blood vessels positive to Congo Red / No. of blood vessels positive to Nissl / No. of hemorrhagic foci. / No. of subcortical infarctions.: cerebral tissues
Description: This experiment was conducted to evaluate the efficacy of pharmaceutical compositions indistinctly containing one of the peptides GHRP-6, GHRP-2, hexarelin or ghrelin on the central neurofunctional involution process in transgenic mice over-expressing one mutated form of the NOTCH 3 gene in blood vessel smooth muscle cells. These animals develop in terms of months an arteriopathy similar to that of the CASADIL disease, referred to the descriptive memory, and is occurring as one of the main causes of vascular dementia. In these animals, vascular lesions also include retinal-cerebral, cerebral and cochlear vasculopathies. The beta-amiloid material present in the brain and blood vessels, the deposit of osmophilic granular material in brain and meningeal artery walls and their reduced lumen are histopathologically relevant. White-pale zones, microinfarction and hemorrhagic foci zones appear in the brain and its main nervous trunks.
Eighteen- to twenty-months-old male mice were employed when evidenced the symptoms of the disease. The animals were randomly assigned to the following experimental treatment groups: • A—Placebo group receiving the physiological saline solution. • B—Group receiving GHRP-6 at a 100 μg/kg dosage. • C—Group receiving GHRP-2 at a 100 μg/kg dosage. • D—Group receiving Ghrelin at a 100 μg/kg dosage. • E—Group receiving Hexarelin at a 100 μg/kg dosage.
Treatments were applied twice a week during 16 weeks by intraperitoneal route. When treatments concluded, autopsy studies were conducted irrespective of the clinical improvement evidenced in a great number of animals treated. Brain tissue samples including meningeal tissues were collected for biochemical and histopathological determinations. The animals received anesthesia overdosed and subjected to intra-cardiac perfusion with cold physiological saline solution to wash off the blood present in the encephala. The encephala were extracted and one encephalon was frozen in dry-ice and the other was fixed in 4% para-formaldehyde neutral. Samples were cryo-sliced at 10 μm and slices were stained with hematoxylin/eosin, Congo Red, or incubated with an antibody specific for the beta-amiloid protein. Morphometric procedures were carried out by microscopic imaging capture by a camera connected to the microscope, and the images were analyzed with the DIGIPAT software.
Number of fibrillar deposits of beta-amiloid in blood vessels.
Number of sub-cortical infarctions.
Number of sub-cortical hemorrhages.
Brain concentration of myo-inositol as indicator of aging and brain metabolism deterioration (μmol/g of tissue).
Brain oxidative stress markers.

Compound | No. of fields positive to collagen-specific staining [1] | No. of microscopic fields with mast cells (20X magnif.) [1] | Hydroxiproline content in the tissue [1] [µg/g] | Wet weight of the graft collected [1] [a grams] | Cabalase (oxidative stress marker) [2] | Cerebral Myo-inositol [2] | HPT (oxidative stress marker) [2] | MDA (oxidative stress marker) [2] | SODt (oxidative stress marker) [2] | No. of blood vessels positive to Congo Red [2] | No. of blood vessels positive to Nissl [2] | No. of hemorrhagic foci. [2] | No. of subcortical infarctions. [2]
Cc1[nH]c2ccccc2c1C[C@@H](NC(=O)[C@@H](N)Cc1cnc[nH]1)C(=O)N[C@@H](C)C(=O)N[C@@H](Cc1c[nH]c2ccccc12)C(=O)N[C@H](Cc1ccccc1)C(=O)N[C@@H](CCCCN)C(N)=O [Hexarelin] (H-H[dTrp(2-Me)]AW[dF]K-NH2) | 12.35 | 10.18 ± 2.98 | 88.59 ± 6.58 | 6.25 ± 1.73 | 51.19 ± 7.84 | 11.88 ± 2.71 μmol/g of tissue | 54.3 ± 11.87 | 0.284 ± 0.01 | 10814.68 ± 33.08 | 15.24 ± 1.24 | 11.36 ± 6.4 | 14.61 ± 3.31 | 27.11 ± 3.55
GHRP-2 | 18.12 | 11.17 ± 3.33 | 84.17 ± 7.75 | 7.14 ± 1.02 | 48.23 ± 14.25 | 14.65 ± 4.38 μmol/g of tissue | 117 ± 13.55 | 0.302 ± 0.01 | 11065.49 ± 46.29 | 18.26 ± 4.57 | 13.8 ± 6.76 | 11.79 ± 4.25 | 30.13 ± 5.72
Ghrelin: secretagogue peptide; active principle of the pharmaceutical composition (GSS(Octanoyl)FLSPEHQRVQQRKESKKPPAKLQPR; ends and bridges not checked; UniProt Q9UBU3 24-51, looked up) | 11.27 | 10.71 ± 4.57 | 85.23 ± 4.11 | 6.67 ± 1.53 | 44.67 ± 11.58 | 14.04 ± 3.85 μmol/g of tissue | 142.16 ± 10.01 | 0.261 ± 0.03 | 12290.9 ± 60.32 | 17.67 ± 2.26 | 11.27 ± 4.61 | 13.06 ± 2.77 | 26.9 ± 4.27

Reference: US8722626B2, “Method for controlling fibrosis and other pathological deposits in tissues comprising administering a GHRP-6 composition” (Centro de Ingenieria Genetica y Biotecnologia, priority 2006, dated 2014)
